Data from patent publication US6043279A, “Compounds having selective activity for retinoid X receptors, and means for modulation of processes mediated by retinoid X receptors” (priority 1997, dated 2000).

How the values were obtained:
[1] = rats
Experimental: Male Sprague-Dawley rats (160-200 gram) were obtained from Harlan. Animals were fed standard laboratory diets (Harlan/Teklad) and kept in an environmentally controlled animal house with a light period lasting from 6 a.m. to 6 p.m. Animals were treated with drugs prepared as suspensions in olive oil.
Plasma was separated and stored at 4° C. for evaluation of plasma total cholesterol and high density lipoprotein cholesterol (HDL-cholesterol).
Plasma total cholesterol was measured enzymatically utilizing Boeringer Mannheim Diagnostics High Performance Cholesterol Methods with an ABBOTT VP Bichromatic Analyzer. HDL cholesterol was measured after preparation of the HDL-containing fraction by heparin-manganese precipitation of plasma. HDL-cholesterol in this fraction was estimated as mentioned earlier. All HDL separations were checked for contamination by other lipoproteins with agarose gel electrophoresis.
Serum samples were taken and analyzed by Western Blot using antisera specific to rat apoA1.

[2] = tested on: ME180, a squamous cell carcinoma; experiment: growth of ME180 tumor cells (cell number); type: cell-based, human
Description: (§1) The effects on growth of these cells were monitored by evaluation of cell number, and also by evaluation of growth in semi-solid medium for the RPMI18226 cell line. […] The therapeutic index is defined as the ratio of efficacy to toxicity of a compound.

[3] = tested on: RPMI18226, a multiple myeloma; experiment: growth of RPMI18226 tumor cells (cell number, semi-solid medium); type: cell-based, human; details: cell number and growth in semi-solid medium
Description: as §1

RXRα/PPAR = biological target: T1, RXRα/PPAR (UniProt P19793+P23204); experiment: co-transfection of RXRα and PPAR into HepG2 cells, target reporter gene; type: cell-based; details: HepG2, read-out: Normalized Response (%)
T1 construct: expressed in transfected cells; host or cells: HepG2
T1 sequence (P23204 whole entry): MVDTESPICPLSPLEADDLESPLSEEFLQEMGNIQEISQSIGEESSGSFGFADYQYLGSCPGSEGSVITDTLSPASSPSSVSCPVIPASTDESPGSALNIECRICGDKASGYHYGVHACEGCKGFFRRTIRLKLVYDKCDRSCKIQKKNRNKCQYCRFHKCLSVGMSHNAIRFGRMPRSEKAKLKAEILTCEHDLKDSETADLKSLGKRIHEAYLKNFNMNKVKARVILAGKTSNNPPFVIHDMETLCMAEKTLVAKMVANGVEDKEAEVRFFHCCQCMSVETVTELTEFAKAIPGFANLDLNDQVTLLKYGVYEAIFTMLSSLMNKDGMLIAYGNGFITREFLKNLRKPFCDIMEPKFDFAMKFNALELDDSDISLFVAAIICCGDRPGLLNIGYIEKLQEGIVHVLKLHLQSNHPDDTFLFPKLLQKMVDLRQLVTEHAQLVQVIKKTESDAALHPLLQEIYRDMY
T1 sequence (P19793 whole entry): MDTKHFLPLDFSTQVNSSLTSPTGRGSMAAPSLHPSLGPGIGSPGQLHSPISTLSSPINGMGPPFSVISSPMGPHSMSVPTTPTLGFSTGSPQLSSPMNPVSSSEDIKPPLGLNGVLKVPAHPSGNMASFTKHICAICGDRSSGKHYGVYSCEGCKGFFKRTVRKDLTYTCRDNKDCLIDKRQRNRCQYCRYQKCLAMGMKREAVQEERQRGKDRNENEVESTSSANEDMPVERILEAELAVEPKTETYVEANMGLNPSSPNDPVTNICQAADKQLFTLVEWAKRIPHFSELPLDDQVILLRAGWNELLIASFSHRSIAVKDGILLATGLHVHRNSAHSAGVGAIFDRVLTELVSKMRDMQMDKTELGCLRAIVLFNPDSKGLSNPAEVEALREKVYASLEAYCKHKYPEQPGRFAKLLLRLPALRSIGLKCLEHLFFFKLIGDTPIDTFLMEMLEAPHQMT
Description: Specifically, peroxisome proliferator-activated receptor (PPAR) is a member of the intracellular receptor super family that plays a role in the modulation of lipid homeostasis. […] These agents, called peroxisome proliferators, have been used in man as hypolipidemic agents.

[4] = tested on: myeloma cell line (RPMI 8226); experiment: thymidine incorporation assay in myeloma cell line RPMI 8226; type: cell-based; details: RPMI 8226 myeloma cells, FIG. 11
Description: This assay examines the incorporation of radiolabeled thymidine into DNA, and by determining the ability of a compound to inhibit thymidine incorporation into DNA, provides a measure of cell proliferation.

Rhino mice = experiment: comedolytic test on Rhino mice; type: in vivo
RAR = experiment: apoA1 "A" site reporter co-transfection in HepG-2 cells with RAR; type: cell-based
Description: (§2) This work focused on studying the transcriptional properties of the retinoid receptors RAR and RXR on a reporter molecule (e.g., luciferase) under control of a basal promoter containing the RXR response element from the apoA1 gene ("A" site). Plasmid constructs coding for the various receptors were transfected into a human hepatocyte cell line (HepG-2) along with the reporter plasmid. […] Widom et al., Mol. Cell. […] After transfection, treatment, harvest, and assay, the data obtained was normalized to transfected beta-galactosidase activity so as to control for transfection efficiency.

RXR = experiment: apoA1 "A" site reporter co-transfection in HepG-2 cells with RXR; type: cell-based
Description: as §2

RXRβ = biological target: T2, RXRβ (Mus musculus, UniProt P28704); experiment: co-transfection (cis-trans) assay in CV-1 cells, RXRβ; type: cell-based; details: CV-1, read-out: Efficacy RXRβ
T2 construct: expressed in transfected cells; host or cells: CV-1 (monkey kidney)
T2 sequence (P28704 1-520): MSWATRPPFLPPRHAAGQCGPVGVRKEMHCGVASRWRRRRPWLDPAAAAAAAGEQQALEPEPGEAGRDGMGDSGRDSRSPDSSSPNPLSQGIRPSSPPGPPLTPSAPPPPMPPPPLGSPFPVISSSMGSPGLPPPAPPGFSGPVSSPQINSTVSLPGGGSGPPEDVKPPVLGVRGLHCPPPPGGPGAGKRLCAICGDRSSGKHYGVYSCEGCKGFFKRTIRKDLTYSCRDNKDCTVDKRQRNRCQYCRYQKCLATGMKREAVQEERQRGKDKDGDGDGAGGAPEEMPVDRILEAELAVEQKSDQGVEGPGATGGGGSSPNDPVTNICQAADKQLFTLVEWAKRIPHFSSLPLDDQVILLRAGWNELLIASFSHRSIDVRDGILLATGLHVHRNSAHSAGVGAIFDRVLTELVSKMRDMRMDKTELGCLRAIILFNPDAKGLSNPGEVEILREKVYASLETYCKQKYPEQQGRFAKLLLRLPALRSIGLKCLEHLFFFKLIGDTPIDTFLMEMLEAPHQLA
Description: The co-transfection assay provides a mechanism to evaluate the ability of a compound to modulate the transcription response initiated by an intracellular receptor. […] Berger et al., J. Steroid Biochem. Molec.
Briefly, the co-transfection assay involves the introduction of two plasmids by transient transfection into a retinoid receptor-negative mammalian cell background. The first plasmid contains a retinoid receptor cDNA and directs constitutive expression of the encoded receptor. The second plasmid contains a cDNA that encodes for a readily quantifiable protein, e.g., firefly luciferase or chloramphenicol acetyl transferase (CAT), under control of a promoter containing a retinoid acid response element, which confers retinoid dependence on the transcription of the reporter. In this co-transfection assay, all retinoid receptors respond to all-trans-retinoic acid in a similar fashion. This assay can be used to accurately measure efficacy and potency of retinoic acid and synthetic retinoids as ligands that interact with the individual retinoid receptor subtypes.
Accordingly, synthetic retinoid compounds of the current invention were evaluated for their interaction with retinoid receptor subtypes using the co-transfection assay in which CV-1 cells were co-transfected with one of the retinoid receptor subtypes, a reporter construct, and an internal control to allow normalization of the response for transfection efficiency. The following example is illustrative.
Retinoids: All-trans-retinoic acid (RA) and 13-cis-retinoic acid (13-cis-RA) were obtained from Sigma. […] Retinoids were dissolved in dimethylsulfoxide for use in the transcriptional activation assays.
Co-transfection Assay In CV-1 Cells: A monkey kidney cell line, CV-1, was used in the cis-trans assay. Cells were transfected with two plasmids. […] The cis-vector contains an easily assayable gene product, in this case the firefly luciferase, coupled to a retinoid-responsive promoter, i.e., an RARE or RXRE. Addition of retinoic acid or an appropriate synthetic retinoid results in the formation of a retinoid-RAR or -RXR complex that activates the expression of luciferase gene, causing light to be emitted from cell extracts. The level of luciferase activity is directly proportional to the effectiveness of the retinoid-receptor complex in activating gene expression. This sensitive and reproducible co-transfection approach permits the identification of retinoids that interact with the different receptor isoforms.
Cells were cultured in DMEM supplemented with 10% charcoal resin-stripped fetal bovine serum, and experiments were conducted in 96-well plates. […] Cells were transfected for 6 h and then washed to remove the precipitate. The cells were then incubated for 36 h with or without retinoid. After the transfection, all subsequent steps were performed on a Beckman Biomek Automated Workstation. […] All determinations were performed in triplicate in two independent experiments and were normalized for transfection efficiency by using β-galactosidase as the internal control. […] Efficacy values less than 5% are not statistically different than the 0% background.

HL60 = experiment: thymidine incorporation assay in HL60 cells; type: cell-based

Q: Which results are given for `C=C(c1ccc(C(=O)O)cc1)c1cc2c(cc1C)C(C)(C)CCC2(C)C` [3-methyl-TTNEB, 4-[1-(3,5,5,8,8-pentamethyl-5,6,7,8-tetrahydro-2-naphthyl)ethenyl]benzoic acid]?
A: total cholesterol ([1]; 4 days): an increase due to the increase of the HDL-cholesterol fraction; plasma HDL-cholesterol at the lowest dose ([1]; 4 days, 0.3 mg/kg i.p.): significant increases; circulating apoA1 levels ([1]; orally 3 mg/kg daily for four days, Western Blot of serum): significant increase in circulating apoA1 levels; cell growth [2]: inhibit cell growth in a concentration-dependent manner; cell growth [3]: inhibit cell growth in a concentration-dependent manner

Q: For `CC(C)(Oc1ccc(Cl)cc1)C(=O)O` [clofibric Acid, clofibric acid], which Emax (RXRα/PPAR) is on record?
A: Its Emax is 100%.

Q: For `C/C(=C\c1ccc(C(=O)O)cc1)c1ccc2c(c1)C(C)(C)CCC2(C)C` [TTNPB], which “concentrations providing essentially no effect on cell proliferation” value [4] is on record?
A: Its value is “less than 10^-11 M”.

Q: With `Cc1cc2c(cc1C(=O)c1ccc(C(=O)O)cc1)C(C)(C)CCC2(C)C` [3-methyl-TTNCB, 4-[(3,5,5,8,8-pentamethyl-5,6,7,8-tetrahydro-2-naphthyl)carbonyl]benzoic acid] as the compound, how does the “inhibition of utriculi diameter” value (Rhino mice; 0.1% solution, topical, Rhino mice, FIG. 9) read?
A: The value was “approximately 50%”.

Q: What about the “irritation to the skin of Rhino mice” value (Rhino mice; compared with 9-cis- or all-trans-retinoic acid) of the same compound?
A: The value was “less irritating to the skin of Rhino mice than 9-cis- or all-trans-retinoic acid”.

Q: What about the “effect on apoA1 "A" site reporter with RAR” value (RAR) of the same compound?
A: Its value is “no effect”.

Q: What about the “activation of apoA1 "A" site reporter with RXR” value (RXR) of the same compound?
A: Its value is “activation in the system”.

Q: With `CC1=C(/C=C/C(C)=C\C=C\C(C)=C\C(=O)O)C(C)(C)CCC1` [9-cis-retinoic acid, reference compound] as the compound, how does the Emax (RXRβ) read?
A: Its Emax is 140%.

Q: With `CC1=C(/C=C/C(C)=C/C=C/C(C)=C/C(=O)O)C(C)(C)CCC1` [all-trans-retinoic acid, All-trans-retinoic acid] as the compound, how does the “cellular proliferation (thymidine incorporation)” value (HL60) read?
A: The value was “inhibits thymidine incorporation”.
